# Source: paper PMC3466212, “Novel AChE Inhibitors for Sustainable Insecticide Resistance Management” (PLoS ONE, 2012)
# Target: T1, G119S AChE1 (Culex pipiens, UniProt Q86GC8, G247S)
# T1 construct: made in house; host or cells: Drosophila S2 cells
# Test: biochemical
# Assay type: biochemical
# Details: not given
# Protocol: Production of C. pipiens WT and mutated AChE1s in Drosophila S2 cells was already described. The chemical library (ChemBridge, 3,000 compounds) screening was performed in duplicate on G119S recombinant AChE1. Chemicals were made soluble in ethanol or dimethylsulphoxide (DMSO), and then diluted at 300 µM in ethanol for storage. […] PTF analogs were analyzed in dose-response experiments (10-fold serial dilutions from 3 mM to 30 nM), using recombinant WT and G119S AChE1 or mosquito head extracts (heads cut from frozen mosquitoes, homogenized in 400 µl PB containing 1% Triton X-100 and cleared by centrifugation at 9,000×g for 3 min). Depending on compound availability, two to five replicates were performed with distinct batches of enzyme. […] IC50 was estimated by nonlinear least square regression. IC50 was also measured on AChE1 from susceptible and resistant mosquito larvae extracts.
row,Structure (SMILES),IC50
1,"CNC(=O)Oc1ccccc1OC(C)C [Propoxur, reference compound]",26500 µM

# Same assay, conditions: recombinant OP-insensitive G119S C. pipiens AChE1; 15 min incubation; acetylthiocholine; read-out: IC50 G119S
row,Structure (SMILES),IC50
1,Cc1ccc(C=C2C(=O)NC(=O)N(c3ccccc3)C2=O)o1 [PTF-3],6.2 µM
2,COc1ccc(N2C(=O)NC(=O)C(=Cc3ccc(C)o3)C2=O)cc1 [PTF-10],81.4 µM
3,Cc1ccc(C=C2C(=O)NC(=O)N(c3ccc(Cl)cc3)C2=O)o1 [PTF-20],27.5 µM

# Target: T2, F290V AChE1 (Culex pipiens, UniProt Q86GC8, F416V)
# T2 construct: made in house; host or cells: Drosophila S2 cells
# Test: not given
# Assay type: biochemical
# Details: F290V OP-insensitive AChE1
# Protocol: (§1) Production of C. pipiens WT and mutated AChE1s in Drosophila S2 cells was already described. The chemical library (ChemBridge, 3,000 compounds) screening was performed in duplicate on G119S recombinant AChE1. Chemicals were made soluble in ethanol or dimethylsulphoxide (DMSO), and then diluted at 300 µM in ethanol for storage. Compounds (30 µM final concentration) were incubated for 15 min at room temperature with 100 µl of G119S recombinant AChE1 then 100 µl of substrate (acetylthiocholine, 1.6 mM, Sigma-Aldrich) was added and the residual activity was quantified by measuring the optical density at 412 nm, as described by Ellman et al.. PTF analogs were analyzed in dose-response experiments (10-fold serial dilutions from 3 mM to 30 nM), using recombinant WT and G119S AChE1 or mosquito head extracts (heads cut from frozen mosquitoes, homogenized in 400 µl PB containing 1% Triton X-100 and cleared by centrifugation at 9,000×g for 3 min). Depending on compound availability, two to five replicates were performed with distinct batches of enzyme. […] IC50 was estimated by nonlinear least square regression. IC50 was also measured on AChE1 from susceptible and resistant mosquito larvae extracts.
# (§2) a numbers refer to Table S1
# (§3) b IC50 values were determined from regression analysis of log-concentrations versus
row,Structure (SMILES),IC50
1,Cc1ccc(C=C2C(=O)NC(=O)N(c3ccccc3)C2=O)o1 [PTF-3],12.4 µM
2,COc1ccc(N2C(=O)NC(=O)C(=Cc3ccc(C)o3)C2=O)cc1 [PTF-10],85.9 µM
3,Cc1ccc(C=C2C(=O)NC(=O)N(c3ccc(Cl)cc3)C2=O)o1 [PTF-20],14.5 µM

# Target: T3, F331W AChE1 (Culex pipiens, UniProt Q86GC8, F457W)
# T3 construct: made in house; host or cells: Drosophila S2 cells
# Test: not given
# Assay type: biochemical
# Details: F331W OP-insensitive AChE1
# Protocol: as §1, §2, §3
row,Structure (SMILES),IC50
1,Cc1ccc(C=C2C(=O)NC(=O)N(c3ccccc3)C2=O)o1 [PTF-3],17.8 µM
2,COc1ccc(N2C(=O)NC(=O)C(=Cc3ccc(C)o3)C2=O)cc1 [PTF-10],88.2 µM
3,Cc1ccc(C=C2C(=O)NC(=O)N(c3ccc(Cl)cc3)C2=O)o1 [PTF-20],8.3 µM

# Test system: C. pipiens Slab strain larvae
# Test: Larval bioassay, Slab strain (OP-susceptible)
# Details: C. pipiens OP-susceptible ace-1 S/S larvae; four to five replicates
# Excerpt: (§4) Three C. pipiens strains were used: the susceptible reference Slab strain, homozygous for ace-1 ^S [39], the resistant reference SR strain, carrying the genetical background of Slab but homozygous for the G119S mutation, allele ace-1 ^R [21] and the Ducos strain, carrying the genetical background of Slab but homozygous for an ace-1 duplication, with one ace-1^S and ace-1^R copy in tandem. Culex pipiens heterozygous larvae (Slab×SR) were obtained by crossing Slab males and SR females. Two A. gambiae reference strains (S molecular form) were used: the susceptible strain Kisumu, homozygous for ace-1 ^S, collected in Kenya in 1953 and maintained since then under laboratory conditions and the resistant Acerkis strain, carrying the genetical background of Kisumu but homozygous for an ace-1^R allele from a population collected in Bobo-Dioulasso, Burkina Faso [41].
# (§5) Insecticidal activity was determined by performing bioassays on fourth-instar larvae as described in [42]. Each compound was dissolved in ethanol. Propoxur (CX) and chlorpyrifos (OP) were used as references. For each compound, we first tested mortality after a 24-hour exposure at 300 µM. […] Mortality data were analyzed by the log-probit program. This program takes into account natural mortality and provides lethal doses (LD) and slopes for each mortality line; it also computes resistance ratios (RR) for each LD, with 95% confidence intervals.
row,Structure (SMILES),LD50 Slab
1,Cc1ccc(C=C2C(=O)NC(=O)N(c3ccccc3)C2=O)o1 [PTF-3],310.0 µM
2,COc1ccc(N2C(=O)NC(=O)C(=Cc3ccc(C)o3)C2=O)cc1 [PTF-10],300.0 µM
3,Cc1ccc(C=C2C(=O)NC(=O)N(c3ccc(Cl)cc3)C2=O)o1 [PTF-20],762.0 µM
4,"CNC(=O)Oc1ccccc1OC(C)C [Propoxur, reference compound]",1.6 µM

# Same assay, conditions: Culex pipiens, 24 h, read-out: Mortality at 300 µM, Slab
row,Structure (SMILES),mortality at 300 µM
1,"CNC(=O)Oc1ccccc1OC(C)C [Propoxur, reference compound]",100%

# Same assay, conditions: fourth-instar larvae, 24 hours exposure, 300 µM
row,Structure (SMILES),"Mortality at 300 µM, Slab"
1,Cc1ccc(C=C2C(=O)NC(=O)N(c3ccccc3)C2=O)o1 [PTF-3],43%
2,COc1ccc(N2C(=O)NC(=O)C(=Cc3ccc(C)o3)C2=O)cc1 [PTF-10],14%
3,Cc1ccc(C=C2C(=O)NC(=O)N(c3ccc(Cl)cc3)C2=O)o1 [PTF-20],43%

# Test system: C. pipiens SR strain larvae
# Test: Larval bioassay, SR strain (OP-resistant)
# Details: C. pipiens OP-resistant ace-1 R/R larvae
# Excerpt: Three C. pipiens strains were used: the susceptible reference Slab strain, homozygous for ace-1 ^S [39], the resistant reference SR strain, carrying the genetical background of Slab but homozygous for the G119S mutation, allele ace-1 ^R [21] and the Ducos strain, carrying the genetical background of Slab but homozygous for an ace-1 duplication, with one ace-1^S and ace-1^R copy in tandem. Culex pipiens heterozygous larvae (Slab×SR) were obtained by crossing Slab males and SR females.
# Insecticidal activity was determined by performing bioassays on fourth-instar larvae as described in [42]. Each compound was dissolved in ethanol. Propoxur (CX) and chlorpyrifos (OP) were used as references. For each compound, we first tested mortality after a 24-hour exposure at 300 µM. […] Mortality data were analyzed by the log-probit program.
row,Structure (SMILES),LD50 SR
1,Cc1ccc(C=C2C(=O)NC(=O)N(c3ccccc3)C2=O)o1 [PTF-3],143.0 µM
2,COc1ccc(N2C(=O)NC(=O)C(=Cc3ccc(C)o3)C2=O)cc1 [PTF-10],206.0 µM
3,Cc1ccc(C=C2C(=O)NC(=O)N(c3ccc(Cl)cc3)C2=O)o1 [PTF-20],194.0 µM
4,"CNC(=O)Oc1ccccc1OC(C)C [Propoxur, reference compound]",2100 µM

# Same assay, conditions: Culex pipiens, 24 h, read-out: Mortality at 300 µM, SR
row,Structure (SMILES),mortality at 300 µM
1,"CNC(=O)Oc1ccccc1OC(C)C [Propoxur, reference compound]",0%

# Same assay, conditions: fourth-instar larvae, 24 hours exposure, 300 µM
row,Structure (SMILES),"Mortality at 300 µM, SR"
1,Cc1ccc(C=C2C(=O)NC(=O)N(c3ccccc3)C2=O)o1 [PTF-3],78%
2,COc1ccc(N2C(=O)NC(=O)C(=Cc3ccc(C)o3)C2=O)cc1 [PTF-10],87%
3,Cc1ccc(C=C2C(=O)NC(=O)N(c3ccc(Cl)cc3)C2=O)o1 [PTF-20],94%

# Test system: C. pipiens Ducos strain larvae
# Test: Larval bioassay, Ducos strain (ace-1 duplication)
# Assay type: in vivo, Culex pipiens
# Details: C. pipiens OP-resistant ace-1 D (duplication) larvae
# Excerpt: as §4, §5
row,Structure (SMILES),LD50 Ducos
1,Cc1ccc(C=C2C(=O)NC(=O)N(c3ccccc3)C2=O)o1 [PTF-3],162.1 µM
2,COc1ccc(N2C(=O)NC(=O)C(=Cc3ccc(C)o3)C2=O)cc1 [PTF-10],232.8 µM
3,"CNC(=O)Oc1ccccc1OC(C)C [Propoxur, reference compound]",56.7 µM

# Test system: C. pipiens F1 (SR×Slab) heterozygous larvae
# Test: Larval bioassay, heterozygous F1 (SR×Slab)
# Assay type: in vivo, Culex pipiens
# Details: C. pipiens heterozygous ace-1 R/ace-1 S larvae
# Excerpt: as §4, §5
row,Structure (SMILES),LD50 F1 (SR×Slab)
1,Cc1ccc(C=C2C(=O)NC(=O)N(c3ccccc3)C2=O)o1 [PTF-3],151.3 µM
2,COc1ccc(N2C(=O)NC(=O)C(=Cc3ccc(C)o3)C2=O)cc1 [PTF-10],207.1 µM
3,"CNC(=O)Oc1ccccc1OC(C)C [Propoxur, reference compound]",2.3 µM

# Test system: A. gambiae Kisumu strain larvae
# Test: Larval bioassay, Kisumu strain (OP-susceptible)
# Assay type: in vivo, Anopheles gambiae
# Details: A. gambiae OP-susceptible ace-1 S/S larvae
# Excerpt: as §4, §5
row,Structure (SMILES),LD50 Kisumu
1,Cc1ccc(C=C2C(=O)NC(=O)N(c3ccccc3)C2=O)o1 [PTF-3],109.7 µM
2,COc1ccc(N2C(=O)NC(=O)C(=Cc3ccc(C)o3)C2=O)cc1 [PTF-10],388.3 µM
3,"CNC(=O)Oc1ccccc1OC(C)C [Propoxur, reference compound]",0.1 µM

# Test system: A. gambiae Acerkis strain larvae
# Test: Larval bioassay, Acerkis strain (OP-resistant)
# Assay type: in vivo, Anopheles gambiae
# Details: A. gambiae OP-resistant ace-1 R/R larvae
# Excerpt: as §4, §5
row,Structure (SMILES),LD50 Acerkis
1,Cc1ccc(C=C2C(=O)NC(=O)N(c3ccccc3)C2=O)o1 [PTF-3],86.6 µM
2,COc1ccc(N2C(=O)NC(=O)C(=Cc3ccc(C)o3)C2=O)cc1 [PTF-10],50.6 µM
3,"CNC(=O)Oc1ccccc1OC(C)C [Propoxur, reference compound]",689.6 µM

# Target: T4, WT AChE1 (Culex pipiens, UniProt Q86GC8)
# Test: not given
# Details: read-out: Kic WT; dissociation constant of enzyme-inhibitor complex; five independent replicates
# Protocol: (§6) To identify inhibitors of G119S AChE1, we screened a 3,000-compound chemical library using an assay adapted to a microplate format, [26]. […] For simplification, these compounds will be termed from now as PTF (PyrimidineTrione Furan-substituted) and were classified depending on the substituted positions (Table S1).
# (§7) WT and G119S recombinant AChE1s were incubated with 0.25 mM, 0.5 mM or 1 mM inhibitor. Residual activity of G119S (A and C) and WT (B and D) AChE1 was measured in the presence of various concentrations of PTF-20 and substrates. Enzymatic activity was analyzed using the graphical method developed by Dixon, representing reciprocal rates (1/v) (A and B) or reciprocal rates multiplied by substrate concentrations ([S]/v) (C and D) as a function of inhibitor concentration. (PDF) Click here for additional data file.
# (§8) Table S3. Dissociation constants (Kic) of enzyme-inhibitor complexes.
# as §2
# (§9) b data were measured from five independent replicates.
# (§10) c competitive inhibitor reference
row,Structure (SMILES),Ki
1,Cc1ccc(C=C2C(=O)NC(=O)N(c3ccccc3)C2=O)o1 [PTF-3],127 ± 2.8 µM
2,COc1ccc(N2C(=O)NC(=O)C(=Cc3ccc(C)o3)C2=O)cc1 [PTF-10],88.2 ± 4.2 µM
3,Cc1ccc(C=C2C(=O)NC(=O)N(c3ccc(Cl)cc3)C2=O)o1 [PTF-20],56.1 ± 1.8 µM

# Target: T1, G119S AChE1
# Test: not given
# Assay type: biochemical
# Details: dissociation constant of enzyme-inhibitor complex; five independent replicates; read-out: Kic G119S
# Protocol: as §6
# Reversibility was tested using a rapid dilution procedure. Residual activity of WT (white bars) and G119S (grey bars) AChE1 were measured after 15 min incubation in presence of inhibitors (striped bars) and are expressed as percentages of control activity. […] Assays were then diluted ten times and residual activity was measured (open bars). Means and standard errors for three independent experiments are shown. (PDF) Click here for additional data file.
# as §7, §8, §2, §9, §10
row,Structure (SMILES),Ki
1,Cc1ccc(C=C2C(=O)NC(=O)N(c3ccccc3)C2=O)o1 [PTF-3],21.8 ± 1.9 µM
2,COc1ccc(N2C(=O)NC(=O)C(=Cc3ccc(C)o3)C2=O)cc1 [PTF-10],64.5 ± 1.8 µM
3,Cc1ccc(C=C2C(=O)NC(=O)N(c3ccc(Cl)cc3)C2=O)o1 [PTF-20],5.6 ± 0.1 µM

# Target: T4, WT AChE1
# Test: AChE assay (Ellman), dose-response on recombinant WT AChE1
# Assay type: biochemical
# Parameters: made in house; host or cells: Drosophila S2 cells
# Details: not given
# Protocol: as §1
row,Structure (SMILES),IC50
1,"CNC(=O)Oc1ccccc1OC(C)C [Propoxur, reference compound]",0.3 µM

# Same assay, conditions: recombinant wild-type C. pipiens AChE1; 15 min incubation; acetylthiocholine; read-out: IC50 WT
row,Structure (SMILES),IC50
1,Cc1ccc(C=C2C(=O)NC(=O)N(c3ccccc3)C2=O)o1 [PTF-3],29.4 µM
2,COc1ccc(N2C(=O)NC(=O)C(=Cc3ccc(C)o3)C2=O)cc1 [PTF-10],592 µM
3,Cc1ccc(C=C2C(=O)NC(=O)N(c3ccc(Cl)cc3)C2=O)o1 [PTF-20],330 µM
